Source: article PMC10008561 (Nature Communications, 2023)
Values joined by “and” are separate entries in the source; they are usually repeats but may differ in a detail not shown here. Equal values may be shown once. Read-outs that look alike come from different tables or passages of the source.

Experiments:
human KOR (Gustducin) [1] = target: T1, human KOR (Gustducin) (Homo sapiens, UniProt P41145, R170A); assay: cell-based; settings: HEK-293T
T1 construct: expressed in transfected cells; host or cells: HEK293T
T1 sequence (P41145 whole entry R170A): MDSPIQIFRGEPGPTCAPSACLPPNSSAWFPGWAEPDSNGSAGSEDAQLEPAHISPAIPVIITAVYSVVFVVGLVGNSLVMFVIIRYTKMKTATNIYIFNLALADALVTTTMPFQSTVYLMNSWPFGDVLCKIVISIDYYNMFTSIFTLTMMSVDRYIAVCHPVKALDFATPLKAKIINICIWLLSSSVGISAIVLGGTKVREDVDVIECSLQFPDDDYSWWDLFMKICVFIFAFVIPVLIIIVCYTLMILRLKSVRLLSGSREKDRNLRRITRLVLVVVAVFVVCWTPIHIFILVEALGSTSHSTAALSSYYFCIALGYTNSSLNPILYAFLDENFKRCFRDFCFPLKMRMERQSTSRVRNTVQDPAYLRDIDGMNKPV

human KOR (Gustducin) [2] = target: T2, human KOR (Gustducin) (Homo sapiens, UniProt P41145, Y320L); assay: cell-based; settings: HEK-293T
T2 construct: expressed in transfected cells; host or cells: HEK293T
T2 sequence (P41145 whole entry Y320L): as the sequence (P41145 whole entry R170A) above, with A170R, Y320L counted along it

human KOR (Gustducin) [3] = target: T3, human KOR (Gustducin) (Homo sapiens, UniProt P41145, D155A); assay: cell-based; settings: HEK-293T
T3 construct: expressed in transfected cells; host or cells: HEK293T
T3 sequence (P41145 whole entry D155A): as the sequence (P41145 whole entry R170A) above, with D155A, A170R counted along it

human KOR (Gustducin) [4] = target: T4, human KOR (Gustducin) (Homo sapiens, UniProt P41145); assay: cell-based
T4 construct: expressed in transfected cells; host or cells: HEK293T
T4 sequence (P41145 whole entry): as the sequence (P41145 whole entry R170A) above, with A170R counted along it

human KOR (Gustducin) [5] = target: T5, human KOR (Gustducin) (Homo sapiens, UniProt P41145, K200A); assay: cell-based; settings: HEK-293T
T5 construct: expressed in transfected cells; host or cells: HEK293T
T5 sequence (P41145 whole entry K200A): as the sequence (P41145 whole entry R170A) above, with A170R, K200A counted along it

human KOR (Gustducin) [6] = target: T6, human KOR (Gustducin) (Homo sapiens, UniProt P41145, T94V); assay: cell-based; settings: HEK-293T
T6 construct: expressed in transfected cells; host or cells: HEK293T
T6 sequence (P41145 whole entry T94V): as the sequence (P41145 whole entry R170A) above, with T94V, A170R counted along it

human KOR (Gustducin) [7] = target: T7, human KOR (Gustducin) (Homo sapiens, UniProt P41145, R271A); assay: cell-based; settings: HEK-293T
T7 construct: expressed in transfected cells; host or cells: HEK293T
T7 sequence (P41145 whole entry R271A): as the sequence (P41145 whole entry R170A) above, with A170R, R271A counted along it

human KOR (Gustducin) [8] = target: T8, human KOR (Gustducin) (Homo sapiens, UniProt P41145, D266A); assay: cell-based; settings: HEK-293T
T8 construct: expressed in transfected cells; host or cells: HEK293T
T8 sequence (P41145 whole entry D266A): as the sequence (P41145 whole entry R170A) above, with A170R, D266A counted along it

human KOR (Gustducin) [9] = target: T9, human KOR (Gustducin) (Homo sapiens, UniProt P41145, N326A); assay: cell-based; settings: HEK-293T
T9 construct: expressed in transfected cells; host or cells: HEK293T
T9 sequence (P41145 whole entry N326A): as the sequence (P41145 whole entry R170A) above, with A170R, N326A counted along it

human KOR (Gustducin) [10] = target: T10, human KOR (Gustducin) (Homo sapiens, UniProt P41145, N322A); assay: cell-based; settings: HEK-293T
T10 construct: expressed in transfected cells; host or cells: HEK293T
T10 sequence (P41145 whole entry N322A): as the sequence (P41145 whole entry R170A) above, with A170R, N322A counted along it

human KOR (Gustducin) [11] = target: T11, human KOR (Gustducin) (Homo sapiens, UniProt P41145, L253A); assay: cell-based; settings: HEK-293T
T11 construct: expressed in transfected cells; host or cells: HEK293T
T11 sequence (P41145 whole entry L253A): as the sequence (P41145 whole entry R170A) above, with A170R, L253A counted along it

human KOR (Gustducin) [12] = target: T12, human KOR (Gustducin) (Homo sapiens, UniProt P41145, R274A); assay: cell-based; settings: HEK-293T
T12 construct: expressed in transfected cells; host or cells: HEK293T
T12 sequence (P41145 whole entry R274A): as the sequence (P41145 whole entry R170A) above, with A170R, R274A counted along it

human KOR (Gustducin) [13] = target: T13, human KOR (Gustducin) (Homo sapiens, UniProt P41145, Y139L); assay: cell-based; settings: HEK-293T
T13 construct: expressed in transfected cells; host or cells: HEK293T
T13 sequence (P41145 whole entry Y139L): as the sequence (P41145 whole entry R170A) above, with Y139L, A170R counted along it

human KOR (Gustducin) [14] = target: T14, human KOR (Gustducin) (Homo sapiens, UniProt P41145, F283A); assay: cell-based; settings: HEK-293T
T14 construct: expressed in transfected cells; host or cells: HEK293T
T14 sequence (P41145 whole entry F283A): as the sequence (P41145 whole entry R170A) above, with A170R, F283A counted along it

human KOR (Gustducin) [15] = target: T15, human KOR (Gustducin) (Homo sapiens, UniProt P41145, Q115N); assay: cell-based; settings: HEK-293T
T15 construct: expressed in transfected cells; host or cells: HEK293T
T15 sequence (P41145 whole entry Q115N): as the sequence (P41145 whole entry R170A) above, with Q115N, A170R counted along it

human KOR (Gustducin) [16] = target: T16, human KOR (Gustducin) (Homo sapiens, UniProt P41145, K227A); assay: cell-based; settings: HEK-293T
T16 construct: expressed in transfected cells; host or cells: HEK293T
T16 sequence (P41145 whole entry K227A): as the sequence (P41145 whole entry R170A) above, with A170R, K227A counted along it

human KOR (Gustducin) [17] = target: T17, human KOR (Gustducin) (Homo sapiens, UniProt P41145, D105A); assay: cell-based; settings: HEK-293T
T17 construct: expressed in transfected cells; host or cells: HEK293T
T17 sequence (P41145 whole entry D105A): as the sequence (P41145 whole entry R170A) above, with D105A, A170R counted along it

human KOR (Gustducin) [18] = target: T18, human KOR (Gustducin) (Homo sapiens, UniProt P41145, R257A); assay: cell-based; settings: HEK-293T
T18 construct: expressed in transfected cells; host or cells: HEK293T
T18 sequence (P41145 whole entry R257A): as the sequence (P41145 whole entry R170A) above, with A170R, R257A counted along it

human KOR (Gustducin) [19] = target: T19, human KOR (Gustducin) (Homo sapiens, UniProt P41145, E297A); assay: cell-based; settings: HEK-293T
T19 construct: expressed in transfected cells; host or cells: HEK293T
T19 sequence (P41145 whole entry E297A): as the sequence (P41145 whole entry R170A) above, with A170R, E297A counted along it

human KOR (Gustducin) [20] = target: T20, human KOR (Gustducin) (Homo sapiens, UniProt P41145, N141A); assay: cell-based; settings: HEK-293T
T20 construct: expressed in transfected cells; host or cells: HEK293T
T20 sequence (P41145 whole entry N141A): as the sequence (P41145 whole entry R170A) above, with N141A, A170R counted along it

human KOR (Gustducin) [21] = target: T21, human KOR (Gustducin) (Homo sapiens, UniProt P41145, F114L); assay: cell-based; settings: HEK-293T
T21 construct: expressed in transfected cells; host or cells: HEK293T
T21 sequence (P41145 whole entry F114L): as the sequence (P41145 whole entry R170A) above, with F114L, A170R counted along it

human KOR (Gustducin) [22] = target: T22, human KOR (Gustducin) (Homo sapiens, UniProt P41145, G319L); assay: cell-based; settings: HEK-293T
T22 construct: expressed in transfected cells; host or cells: HEK293T
T22 sequence (P41145 whole entry G319L): as the sequence (P41145 whole entry R170A) above, with A170R, G319L counted along it

human KOR (Gustducin) [23] = target: T23, human KOR (Gustducin) (Homo sapiens, UniProt P41145, D334A); assay: cell-based; settings: HEK-293T
T23 construct: expressed in transfected cells; host or cells: HEK293T
T23 sequence (P41145 whole entry D334A): as the sequence (P41145 whole entry R170A) above, with A170R, D334A counted along it

DOR = DOR (Homo sapiens, UniProt P41143); assay: Radioligand competition binding (3H-Diprenorphine)
DOR, sequence (P41143 whole entry): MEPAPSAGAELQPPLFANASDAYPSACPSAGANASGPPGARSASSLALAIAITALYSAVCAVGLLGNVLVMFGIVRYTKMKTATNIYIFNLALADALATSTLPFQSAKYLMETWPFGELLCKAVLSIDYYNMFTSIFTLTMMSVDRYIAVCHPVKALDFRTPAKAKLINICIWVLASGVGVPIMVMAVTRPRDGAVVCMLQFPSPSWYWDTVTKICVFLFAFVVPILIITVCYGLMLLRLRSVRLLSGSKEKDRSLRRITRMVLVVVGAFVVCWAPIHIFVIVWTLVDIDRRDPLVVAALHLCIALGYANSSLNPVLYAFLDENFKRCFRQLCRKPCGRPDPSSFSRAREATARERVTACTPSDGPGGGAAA

MOR [24] = target: T24, MOR (Homo sapiens, UniProt P35372); assay: BRET-Gi1 protein activation; type: cell-based
T24 construct: expressed in transfected cells; host or cells: HEK293
T24 sequence (P35372 whole entry): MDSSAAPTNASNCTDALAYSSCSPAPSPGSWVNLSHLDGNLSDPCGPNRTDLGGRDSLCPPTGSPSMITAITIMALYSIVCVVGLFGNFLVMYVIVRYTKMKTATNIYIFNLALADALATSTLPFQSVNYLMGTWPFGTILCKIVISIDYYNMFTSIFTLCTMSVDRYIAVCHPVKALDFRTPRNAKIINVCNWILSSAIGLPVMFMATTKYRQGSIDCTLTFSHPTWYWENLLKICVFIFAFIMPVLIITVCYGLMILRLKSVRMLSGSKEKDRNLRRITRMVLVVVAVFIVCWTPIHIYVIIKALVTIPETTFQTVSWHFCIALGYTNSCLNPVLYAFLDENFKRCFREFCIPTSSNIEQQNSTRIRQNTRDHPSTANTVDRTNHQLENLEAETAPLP

KOR K227A = KOR K227A (Homo sapiens, UniProt P41145, K227A); type: cell-based; parameters: expressed in transfected cells; host or cells: HEK 293T (ATCC, CRL-3216); settings: Log [Drug]
KOR K227A, sequence (P41145 whole entry K227A): as the sequence (P41145 whole entry R170A) above, with A170R, K227A counted along it

human KOR = human KOR (Homo sapiens, UniProt P41145); assay: cell-based; parameters: expressed in transfected cells; host or cells: HEK 293T (ATCC, CRL-3216); settings: HTLA
human KOR, sequence (P41145 whole entry): as the sequence (P41145 whole entry R170A) above, with A170R counted along it

[25] = ref Liu et al., Neuropsychopharmacology, 2018, Abraham et al., cited from earlier work
MOR [26] = target: T24, MOR; assay: Radioligand competition binding (3H-Diprenorphine)
[27] = read-out: KOR WT_Arrestin response (Figure S4D)
[28] = read-out: Tango response (Figure S4C)

## CN(C(=O)/C=C/c1ccoc1)[C@@H]1CC[C@@]2(O)[C@H]3Cc4ccc(O)c5c4[C@@]2(CCN3CC2CC2)[C@H]1O5 [Nalfurafine, nalfurafine]
Human KOR (Gustducin) [1]
  Emax: 77.5%
Human KOR (Gustducin) [2]
  Emax: 80%
Human KOR (Gustducin) [3]
  Emax: 91.8%
Human KOR (Gustducin) [4]
  Emax%: 65%
Human KOR (Gustducin) [4]; HEK-293T
  Emax: 65.6%
Human KOR (Gustducin) [5]
  Emax: 75.7%
Human KOR (Gustducin) [6]
  Emax: 73.6%
Human KOR (Gustducin) [7]
  Emax: 56.9%
Human KOR (Gustducin) [8]
  Emax: 62.6%
Human KOR (Gustducin) [9]
  Emax: 49.2%
Human KOR (Gustducin) [10]
  Emax: 96.6%
Human KOR (Gustducin) [11]
  Emax: 61.4%
Human KOR (Gustducin) [12]
  Emax: 82%
Human KOR (Gustducin) [13]
  Emax: 55.3%
Human KOR (Gustducin) [14]
  Emax: 100%
Human KOR (Gustducin) [15]
  Emax: 62.9%
Human KOR (Gustducin) [16]
  Emax: 85.5%
Human KOR (Gustducin) [17]
  Emax: 70.2%
Human KOR (Gustducin) [18]
  Emax: 53.8%
Human KOR (Gustducin) [19]
  Emax: 73.1%
Human KOR (Gustducin) [20]
  Emax: 79.1%
Human KOR (Gustducin) [21]
  Emax: 60.6%
Human KOR (Gustducin) [22]
  Emax: 80.9%
Human KOR (Gustducin) [23]
  Emax: 100%
DOR
  Ki: 0.427 nM
MOR [24]
  EC50: 5.13 nM
KOR K227A; M -6, replicate values
  KOR K227A_Gi response (Figure S4D): 107.002 and 103.527 and 102.568
KOR K227A; M -6.5, replicate values
  KOR K227A_Gi response (Figure S4D): 98.0139 and 98.733 and 102.808
KOR K227A; M -7, replicate values
  KOR K227A_Gi response (Figure S4D): 101.489 and 104.366 and 102.568
KOR K227A; M -7.5, replicate values
  KOR K227A_Gi response (Figure S4D): 98.3734 and 96.4559 and 94.5383
KOR K227A; M -8, replicate values
  KOR K227A_Gi response (Figure S4D): 100.531 and 98.0139
KOR K227A; M -8.5, replicate values
  KOR K227A_Gi response (Figure S4D): 99.8116 and 103.767 and 98.2536
KOR K227A; M -9, replicate values
  KOR K227A_Gi response (Figure S4D): 96.9353 and 103.167 and 100.291
KOR K227A; M -9.5, replicate values
  KOR K227A_Gi response (Figure S4D): 98.9727 and 99.5719 and 95.8566
KOR K227A; M -10, replicate values
  KOR K227A_Gi response (Figure S4D): 99.3322 and 106.283 and 99.5719
KOR K227A; M -10.5, replicate values
  KOR K227A_Gi response (Figure S4D): 95.9765 and 94.778 and 93.8193
KOR K227A; M -11, replicate values
  KOR K227A_Gi response (Figure S4D): 90.7033 and 96.5757 and 95.2574
KOR K227A; M -12, replicate values
  KOR K227A_Gi response (Figure S4D): 68.1721 and 73.8049 and 67.4531
KOR K227A; M -12.5, replicate values
  KOR K227A_Gi response (Figure S4D): 37.1319 and 43.2441 and 45.1616
KOR K227A; M -13, replicate values
  KOR K227A_Gi response (Figure S4D): 12.6833 and 10.4062
KOR K227A; M -14, replicate values
  KOR K227A_Gi response (Figure S4D): 6.331 and 5.612 and 17.3573
Human KOR
  Emax: 100 ± 5%
Human KOR; [27]
  activation at 3.162 pM: 21.6%
  activation at 10 pM: 33.5%
  activation at 31.62 pM: 37.7%
  activation at 0.0001 µM: 65.6%
  activation at 0.001 µM: 67.9%
  activation at 0.01 µM: 76.6%
  activation at 0.1 µM: 97.1%
  activation at 1 µM: 106%
  activation at […]: 68.4% and 74.4% and 96.9% and 96.5%
Human KOR; read-out: Tango response
  activation at 10 pM: 21.8%
  activation at 31.62 pM: 35.1%
  activation at 0.0001 µM: 39.8%
  activation at 0.001 µM: 74.2%
  activation at 0.01 µM: 80.9%
  activation at 1 µM: 106%
  activation at […]: 71% and 100%
Human KOR; [28]
  activation at 0.0001 µM: 36.1%
  activation at 0.001 µM: 74.1%
  activation at 0.1 µM: 87.2%
  activation at 1 µM: 87.7%
  activation at 10 µM: 121%
  activation at […]: 77.4% and 111%
[25]; high dose 20-50 μg/Kg
  side effects: starts causing motor incoordination, sedation, and aversion effects
[25]; low dose 2.5-20 μg/Kg
  side effects (dysphoria, sedation, hallucinations): does not produce typical
MOR [26]
  Ki: 13.2 nM
